Assay results reported in publication PMC5201303, “Comparison of Enzymatic Traits between Native and Recombinant Glycine Sarcosine N-Methyltransferase from Methanohalophilus portucalensis FDF1^T” (PLoS ONE, 2016).

How the values were obtained:
[1] = molecular target: T1, native GSMT (glycine sarcosine N-methyltransferase) (Methanohalophilus portucalensis, UniProt F6KV61); test: radiometric [methyl-3H]-SAM methyl transfer, charcoal separation; format: biochemical; settings: read-out: I50
T1 construct: monomer and dimer fractions pooled
T1 sequence (F6KV61 1-263): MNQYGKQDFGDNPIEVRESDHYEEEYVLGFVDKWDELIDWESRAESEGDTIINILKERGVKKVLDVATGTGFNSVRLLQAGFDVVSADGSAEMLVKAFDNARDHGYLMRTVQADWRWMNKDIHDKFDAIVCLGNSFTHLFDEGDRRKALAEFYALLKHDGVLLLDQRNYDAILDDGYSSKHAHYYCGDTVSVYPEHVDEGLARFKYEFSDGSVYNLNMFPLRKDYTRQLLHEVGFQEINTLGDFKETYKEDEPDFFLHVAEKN

[2] = molecular target: T1, native GSMT (glycine sarcosine N-methyltransferase); test: as above; format: biochemical

SMILES	IC50 [1] [µM]	remaining activity at 1 M [2] [%]
Nc1ncnc2c1ncn2[C@@H]1O[C@H](CSCC[C@H](N)C(=O)O)[C@@H](O)[C@H]1O [SAH, S-adenosylhomocysteine]	50	
C[N+](C)(C)CC(=O)[O-] [betaine]		43
